From patent US20260055114A1, “IMIDAZO[1,2-B]PYRIDAZINE INHIBITORS OF CYCLIN-DEPENDENT KINASES” (H. LEE MOFFITT CANCER CENTER AND RESEARCH INSTITUTE, INC., priority 2022, published 2026)

Assays:
MDA-MB-231 cell line = assay: Antiproliferative activity, MDA-MB-231 cell line (GI50); format: cell-based; settings: Homo sapiens
CDK12 = CDK12 (Homo sapiens, UniProt Q9NYV4); assay: Inhibition of cyclin-dependent kinase 12 (% enzyme activity at 1 uM and IC50); format: biochemical; settings: for remaining activity at 1 µM: 1 uM compound
Chain of CDK12 (Q9NYV4 whole entry): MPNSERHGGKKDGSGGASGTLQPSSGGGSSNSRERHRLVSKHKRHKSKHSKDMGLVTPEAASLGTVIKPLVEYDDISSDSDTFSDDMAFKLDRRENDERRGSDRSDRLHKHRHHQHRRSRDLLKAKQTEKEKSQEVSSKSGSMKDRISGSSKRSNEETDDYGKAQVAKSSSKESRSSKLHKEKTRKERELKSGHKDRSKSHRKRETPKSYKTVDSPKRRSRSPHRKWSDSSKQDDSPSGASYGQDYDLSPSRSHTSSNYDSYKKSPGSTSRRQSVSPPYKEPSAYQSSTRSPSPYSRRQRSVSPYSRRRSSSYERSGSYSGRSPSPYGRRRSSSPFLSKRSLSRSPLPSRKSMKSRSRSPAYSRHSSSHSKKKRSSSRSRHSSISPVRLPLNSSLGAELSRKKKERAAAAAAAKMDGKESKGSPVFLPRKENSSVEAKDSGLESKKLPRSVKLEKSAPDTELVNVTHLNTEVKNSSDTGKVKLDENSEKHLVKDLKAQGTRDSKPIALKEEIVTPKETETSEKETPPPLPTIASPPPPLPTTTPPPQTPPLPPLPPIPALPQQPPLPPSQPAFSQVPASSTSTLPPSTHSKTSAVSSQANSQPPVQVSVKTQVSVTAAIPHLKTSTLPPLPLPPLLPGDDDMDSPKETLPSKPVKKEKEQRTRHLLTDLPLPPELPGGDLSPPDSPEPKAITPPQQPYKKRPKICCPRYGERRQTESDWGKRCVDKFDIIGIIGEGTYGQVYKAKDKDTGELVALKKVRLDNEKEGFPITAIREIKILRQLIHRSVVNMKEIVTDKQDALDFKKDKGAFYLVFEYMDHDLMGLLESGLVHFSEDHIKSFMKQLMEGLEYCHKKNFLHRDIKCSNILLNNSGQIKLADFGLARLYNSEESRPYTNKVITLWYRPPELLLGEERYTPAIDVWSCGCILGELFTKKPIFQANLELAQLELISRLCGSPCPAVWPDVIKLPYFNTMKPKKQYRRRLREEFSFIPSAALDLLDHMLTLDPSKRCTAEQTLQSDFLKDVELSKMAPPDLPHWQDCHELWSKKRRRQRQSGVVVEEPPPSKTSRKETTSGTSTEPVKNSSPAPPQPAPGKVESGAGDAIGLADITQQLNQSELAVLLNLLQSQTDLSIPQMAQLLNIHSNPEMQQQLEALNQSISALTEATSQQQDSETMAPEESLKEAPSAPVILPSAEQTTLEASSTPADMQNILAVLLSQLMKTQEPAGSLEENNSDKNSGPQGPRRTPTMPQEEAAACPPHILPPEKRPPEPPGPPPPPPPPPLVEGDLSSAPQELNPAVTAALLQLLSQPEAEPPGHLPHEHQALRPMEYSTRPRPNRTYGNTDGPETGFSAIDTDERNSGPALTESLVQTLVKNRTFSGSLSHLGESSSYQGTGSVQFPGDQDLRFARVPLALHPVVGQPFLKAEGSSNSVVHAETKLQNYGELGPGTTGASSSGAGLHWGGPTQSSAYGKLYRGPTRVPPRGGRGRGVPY
Chain of CDK12 (O75909 whole entry partner): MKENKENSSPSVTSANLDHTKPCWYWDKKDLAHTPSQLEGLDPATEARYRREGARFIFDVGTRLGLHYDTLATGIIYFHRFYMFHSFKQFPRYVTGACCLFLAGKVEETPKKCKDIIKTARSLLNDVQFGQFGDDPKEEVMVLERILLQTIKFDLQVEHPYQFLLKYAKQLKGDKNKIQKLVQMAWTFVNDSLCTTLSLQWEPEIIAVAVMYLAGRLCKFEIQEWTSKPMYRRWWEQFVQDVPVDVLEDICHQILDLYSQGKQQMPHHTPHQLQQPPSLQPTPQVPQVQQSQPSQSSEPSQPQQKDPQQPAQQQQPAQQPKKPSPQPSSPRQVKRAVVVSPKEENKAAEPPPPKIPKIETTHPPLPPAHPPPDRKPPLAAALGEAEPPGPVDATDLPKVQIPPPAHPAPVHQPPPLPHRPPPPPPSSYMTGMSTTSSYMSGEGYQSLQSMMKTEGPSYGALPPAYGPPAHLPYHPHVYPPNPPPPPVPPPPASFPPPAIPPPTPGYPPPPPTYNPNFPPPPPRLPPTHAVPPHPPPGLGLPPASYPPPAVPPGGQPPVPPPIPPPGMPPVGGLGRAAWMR

CCNK = CCNK degradation (DC50, Dmax); format: cell-based; settings: for Dmax (%): CCNK degradation

Row | GI50 (MDA-MB-231 cell line) [nM] | IC50 (CDK12) [nM] | DC50 (CCNK) [nM] | remaining activity at 1 µM (CDK12) [%] | SMILES | Dmax (%) (CCNK)
1 | 284 | 907 | 1400 |  | CN1CCN(c2cc(NCc3nc4cc(Cl)c(Cl)cc4[nH]3)c3ncc(-c4cn[nH]c4)n3n2)CC1 [Cmpd 60, N-((5,6-dichloro-1H-benzo[d]imidazol-2-yl)methyl)-6-(4-methylpiperazin-1-yl)-3-(1H-pyrazol-4-yl) imidazo[1,2-b]pyridazin-8-amine] | 100
2 | 235 | 1320 | 590 |  | Clc1cc2nc(CNc3cc(N4CCOCC4)nn4c(-c5cn[nH]c5)cnc34)[nH]c2cc1Cl [Cmpd 61, N-((5,6-dichloro-1H-benzo[d]imidazol-2-yl)methyl)-6-morpholino-3-(1H-pyrazol-4-yl) imidazo[1,2-b]pyridazin-8-amine] | 100
3 | 78 | 2010 | 180 |  | CN1CCN(c2cc(NCc3nc4cc(Cl)c(Cl)cc4[nH]3)c3ncc(-c4ccsc4)n3n2)CC1 [Cmpd 63, N-((5,6-dichloro-1H-benzo[d]imidazol-2-yl)methyl)-6-(4-methylpiperazin-1-yl)-3-(thiophen-3-yl) imidazo[1,2-b]pyridazin-8-amine] | 100
4 | 168 | 4250 | 340 |  | Clc1cc2nc(CNc3cc(N4CCOCC4)nn4c(-c5ccsc5)cnc34)[nH]c2cc1Cl [Cmpd 64, N-((5,6-dichloro-1H-benzo[d]imidazol-2-yl)methyl)-6-morpholino-3-(thiophen-3-yl) imidazo[1,2-b]pyridazin-8-amine] | 100
5 | 180 | 90 | 80 |  | CN1CCN(c2cc(NCc3nc4cccc(Cl)c4[nH]3)c3ncc(-c4ccsc4)n3n2)CC1 [Cmpd 66, N-((7-chloro-1H-benzo[d]imidazol-2-yl)methyl)-6-(4-methylpiperazin-1-yl)-3-(thiophen-3-yl) imidazo[1,2-b]pyridazin-8-amine] | 85
6 | 207 | 300 | 80 |  | Clc1cccc2nc(CNc3cc(N4CCOCC4)nn4c(-c5ccsc5)cnc34)[nH]c12 [Cmpd 67, N-((7-chloro-1H-benzo[d]imidazol-2-yl)methyl)-6-morpholino-3-(thiophen-3-yl) imidazo[1,2-b]pyridazin-8-amine] | 85
7 | 33 | 65 | 10 |  | Clc1cccc2nc(CNc3cc(N4CCNCC4)nn4c(-c5ccsc5)cnc34)[nH]c12 [Cmpd 68, N-((7-chloro-1H-benzo[d]imidazol-2-yl)methyl)-6-(piperazin-1-yl)-3-(thiophen-3-yl) imidazo[1,2-b]pyridazin-8-amine] | 90
8 | 92 | 57 | 150 |  | NC1CCN(c2cc(NCc3nc4cccc(Cl)c4[nH]3)c3ncc(-c4ccsc4)n3n2)C1 (centres unmarked) [Cmpd 69, 6-(3-aminopyrrolidin-1-yl)-N-((7-chloro-1H-benzo[d]imidazol-2-yl)methyl)-3-(thiophen-3-yl) imidazo[1,2-b]pyridazin-8-amine] | 85
9 | 73 | 78 | 160 |  | NC1CCN(c2cc(NCc3nc4cccc(Cl)c4[nH]3)c3ncc(-c4ccsc4)n3n2)CC1 [Cmpd 70, 6-(4-aminopiperidin-1-yl)-N-((7-chloro-1H-benzo[d]imidazol-2-yl)methyl)-3-(thiophen-3-yl) imidazo[1,2-b]pyridazin-8-amine] | 95
10 | 71 | 130 | 160 |  | CN1CCC(Nc2cc(NCc3nc4cccc(Cl)c4[nH]3)c3ncc(-c4ccsc4)n3n2)CC1 [Cmpd 71, N8-((7-chloro-1H-benzo[d]imidazol-2-yl)methyl)-N6-(1-methylpiperidin-4-yl)-3-(thiophen-3-yl) imidazo[1,2-b]pyridazine-6,8-diamine] | 100
11 | 49 | 56 | 50 |  | Clc1cccc2nc(CNc3cc(NC4CCNCC4)nn4c(-c5ccsc5)cnc34)[nH]c12 [Cmpd 72, N8-((7-chloro-1H-benzo[d]imidazol-2-yl)methyl)-N6-(piperidin-4-yl)-3-(thiophen-3-yl) imidazo[1,2-b]pyridazine-6,8-diamine] | 100
12 | 146 | 38 | 140 |  | Cc1ccnc2[nH]c(CNc3cc(N4CCN(C)CC4)nn4c(-c5ccsc5)cnc34)nc12 [Cmpd 75, N-((7-methyl-3H-imidazo[4,5-b]pyridin-2-yl)methyl)-6-(4-methylpiperazin-1-yl)-3-(thiophen-3-yl) imidazo[1,2-b]pyridazin-8-amine] | 80
13 | 376 | 7380 | 250 |  | Cc1ccnc2[nH]c(CNc3cc(N4CCOCC4)nn4c(-c5ccsc5)cnc34)nc12 [Cmpd 76, N-((7-methyl-3H-imidazo[4,5-b]pyridin-2-yl)methyl)-6-morpholino-3-(thiophen-3-yl) imidazo[1,2-b]pyridazin-8-amine] | 75
14 | 425 | 473 | 260 | 24 | CN1CCN(c2cc(NCc3nc4c(F)c(F)ccc4[nH]3)c3ncc(-c4ccsc4)n3n2)CC1 [Cmpd 78, N-((4,5-difluoro-1H-benzo[d]imidazol-2-yl)methyl)-6-(4-methylpiperazin-1-yl)-3-(thiophen-3-yl) imidazo[1,2-b]pyridazin-8-amine] | 80
15 | 1470 | 5000 | 1700 | 80 | CN1CCN(c2cc(NCc3nc4cc(Cl)c(Cl)cc4[nH]3)c3ncc(-c4csc(C#N)c4)n3n2)CC1 [Cmpd 79, 4-(8-(((5,6-dichloro-1H-benzo[d]imidazol-2-yl)methyl)amino)-6-(4-methylpiperazin-1-yl)imidazo[1,2-b]pyridazin-3-yl)thiophene-2-carbonitrile] | 75
16 | 867 | 3000 | 1000 | 75 | N#Cc1cc(-c2cnc3c(NCc4nc5cc(Cl)c(Cl)cc5[nH]4)cc(N4CCOCC4)nn23)cs1 [Cmpd 80, 4-(8-(((5,6-dichloro-1H-benzo[d]imidazol-2-yl)methyl)amino)-6-morpholinoimidazo[1,2-b]pyridazin-3-yl)thiophene-2-carbonitrile] | 95
17 | 1920 | 647 | 300 | 33 | CN1CCN(c2cc(NCc3nc4cccc(Cl)c4[nH]3)c3ncc(-c4csc(C#N)c4)n3n2)CC1 [Cmpd 81, 4-(8-(((7-chloro-1/-benzo[d]imidazol-2-yl)methyl)amino)-6-(4-methylpiperazin-1-yl)imidazo[1,2-b]pyridazin-3-yl)thiophene-2-carbonitrile] | 80
18 | 1120 | 405 | 250 | 30 | CN1CCN(c2cc(NCc3nc4c(F)c(F)ccc4[nH]3)c3ncc(-c4csc(C#N)c4)n3n2)CC1 [Cmpd 82, 4-(8-(((4,5-difluoro-1H-benzo[d]imidazol-2-yl)methyl)amino)-6-(4-methylpiperazin-1-yl)imidazo[1,2-b]pyridazin-3-yl)thiophene-2-carbonitrile] | 50
19 | 2210 |  | 1500 | 61 | Cc1cc(-c2cnc3c(NCc4nc5cccc(Cl)c5[nH]4)cc(N4CCN(C)CC4)nn23)cs1 [Cmpd 84, N-((7-chloro-1H-benzo[d]imidazol-2-yl)methyl)-6-(4-methylpipcrazin-1-yl)-3-(5-methylthiophen-3-yl) imidazo[1,2-b]pyridazin-8-amine] | 80
20 | 3910 |  | 1200 | 73 | Cc1cc(-c2cnc3c(NCc4nc5cccc(Cl)c5[nH]4)cc(N4CCOCC4)nn23)cs1 [Cmpd 85, N-((7-chloro-1H-benzo[d]imidazol-2-yl)methyl)-3-(5-methylthiophen-3-yl)-6-morpholinoimidazo[1,2-b]pyridazin-8-amine] | 85
21 | 7360 |  | 10000 | 82 | Cc1cc(-c2cnc3c(NCc4nc5cc(Cl)c(Cl)cc5[nH]4)cc(N4CCN(C)CC4)nn23)cs1 [Cmpd 87, N-((5,6-dichloro-1H-benzo[d]imidazol-2-yl)methyl)-6-(4-methylpiperazin-1-yl)-3-(5-methylthiophen-3-yl) imidazo[1,2-b]pyridazin-8-amine] | 
22 | 460 |  | 1800 | 82 | Cc1cc(-c2cnc3c(NCc4nc5cc(Cl)c(Cl)cc5[nH]4)cc(N4CCOCC4)nn23)cs1 [Cmpd 88, N-((5,6-dichloro-1H-benzo[d]imidazol-2-yl)methyl)-3-(5-methylthiophen-3-yl)-6-morpholinoimidazo[1,2-b]pyridazin-8-amine] | 100
23 | 4160 | 1410 | 10000 | 36 | Cc1cc(-c2cnc3c(NCc4nc5c(C)ccnc5[nH]4)cc(N4CCN(C)CC4)nn23)cs1 [Cmpd 90, N-((7-methyl-3H-imidazo[4,5-b]pyridin-2-yl)methyl)-6-(4-methylpiperazin-1-yl)-3-(5-methylthiophen-3-yl) imidazo[1,2-b]pyridazin-8-amine] | 
24 | 3940 |  | 10000 | 103 | Cc1cc(-c2cnc3c(NCc4nc5c(C)ccnc5[nH]4)cc(N4CCOCC4)nn23)cs1 [Cmpd 91, N-((7-methyl-3H-imidazo[4,5-b]pyridin-2-yl)methyl)-3-(5-methylthiophen-3-yl)-6-morpholinoimidazo[1,2-b]pyridazin-8-amine] | 
25 | 1250 | 1220 | 80 | 36 | Cc1cc(-c2cnc3c(NCc4nc5c(F)cccc5[nH]4)cc(N4CCN(C)CC4)nn23)cs1 [Cmpd 93, N-((4-fluoro-1H-benzo[d]imidazol-2-yl)methyl)-6-(4-methylpiperazin-1-yl)-3-(5-methylthiophen-3-yl) imidazo[1,2-b]pyridazin-8-amine] | 80
